Where two headings read alike, the source gives them in different places.

Series [1] relates to HepG2 cells. Description: Cell cycle distribution by flow cytometry (PI), HepG2. It is filed as cell-based, human. The note with it: 48 hours, FIG. 2. The protocol:
Cultured cells with or without pre-treatment of the compounds of this invention (i.e., norcantharidin, NOC15, or NC15, 10-60 μM for 48 hours) were harvested from the cultured media and fixed by incuating with 75% iced cold ehtanol and kept at −20° C. until analysis. The fixed cells were then washed with PBS, and treated with […] (200 μg/mL, 500 μL) for about 1.5 hour at 37° C. Precipitated cells were collected by centrifugation and re-suspended in a buffer solution containing propidium iodine (PI) (40 μg/ml) and incubated in the dark for 20 min at 20-25° C. before being subject to flow cytometry analysis, where cell numbers at respective cell cycles were determined.
(§1) HepG2 cells were treated with 10-60 μM of the test compounds for 48 hours, then cell cycle distribution and apoptosis analysis was analyzed by flow cytometry, with the subG1 phase being stained with propidium idoine (PI). Results are illustrated in FIGS. 2 and 3.
A general note: Flow cytometry measures light scatter and fluorescence of single cells or particles in a stream.

For series [2], the system named is HepG2 cells. In words: Hoechst 33528 staining, nuclear morphological changes. The note with it: 40 μM, 48 hours, FIG. 1. It is filed as cell-based, human. The protocol:
Staining with Hoechst 33528 was performed according to the method described previously (Huang et al., Cytotechnology 2009, 59, 201-208). Briefly, cells were treated with 40 μM norcantharidin, NOC15, or NC15 for 48 hours, then washed with PBS saline and stained with Hoechst 33528 (Sigma, St. Louis, Mo., USA) at a final concentration of 10 μg/mL. The slides were examined under a fluorescence microscope. Cells with a small nucleus, a high fluorescence intensity (due to chromatin condensation) or nuclear fragmentation were considered apoptotic.
To further investigate the role of apoptosis in the cytotoxicity of NOC15 and NC15, HepG2 cells were incubated with compound 2, NOC15 and NC15, respectively, for 48 hours; then were stained with Hoechst 33528 and examined by fluorescence microscope for any topical morphological changes.

The test system of another series is BFTC905. In words: MTT cell viability, BFTC905. It is filed as cell-based, human. The note with it: Homo sapiens, BFTC-905, 48 hours, Mean ± SD, read-out: Growth Inhibition IC50 BFTC905. As to the method: (§2) Cell lines used in the present disclosure include human liver carcinonoma cell line HepG2, human bladder carcinoma cell line BFTC905, human colon carcinoma cell lines HT29 and SW480, and human leukemia cell lines HL60 and Jurkat T, and mouse lymphocytic leukemia cell line L1210. Each cell lines were cultured and maintained in Dulbecco's modified Eagle media (DMEM) or RPMI 1640 medium supplemented with 10% heat inactivated fetal bovine serum (FBS), 1% penicillin/streptomycin, in 5% CO2195% air at 37° C.
(§3) The absorbance of the solution at 540 nm was measured by spectrophotometer. The IC50 values were defined as the drug concentration that inhibit 50% cell growth by setting the viability of untreated cells as 100%. Values were represented as the mean±SD from at least 3 independent experiments.
(§4) Effects of the compounds of formula (I) of this disclosure, specifically, NOC15 and NC 15, on HepG2 cells (liver carcinoma), BFTC905 (bladder carcinoma), HT29 (colon carcinoma), SW480 (colon carcinoma) and HL60 (leukemia) were assessed by cell viability analysis in accordance with procedures described above, in which compound 2, and other known anti-cancer agents including 5-FU, cisplatin and doxorubicin were respectively used as positive controls.

Another series relates to SW480. In words: MTT cell viability, SW480. The note with it: Homo sapiens, SW480, 48 hours, Mean ± SD, read-out: Growth Inhibition IC50 SW480. The format is cell-based, human. As to the method: as §2, §3, §4
A short description of series [3]: Body weight of treated animals. The format is in vivo, mice. The note with it: 18 mg/Kg, compared with healthy normal control, FIG. 11. The protocol: (§5) To inoculate tumor, L1210 cells (1×10^6 cells per injection) were injected either subcutaneously or intraperitoneally to lab animals to generate tumors on day 1. After 7 days, NOC15 or NC15 (diluted in normal saline) was administered intra-peritoneally at a dose of 18 mg/kg every day for 7 days. The average body weight (BW) of the animals was measured daily.
(§6) Mice were inoculated with L1210 tumor cells in accordance with the procedures described in the section of “Materials and Methods.” For in vivo therapy, animals were given 18 mg/Kg NOC15 or NC15 by intra-peritoneal route, for a period of at least 7 days. Tumor size, animal body weight, respective weights of liver and spleen, as well as the white blood cell count of each animal were then measured respectively at the indicated time. Results are depicted in FIGS. 8 to 11, respectively.

Series [4] deals with HepG2 cells. In words: MTT cell viability, HepG2. It is filed as cell-based, human. As to conditions: Homo sapiens, Mean ± SD. The protocol:
as §2, §3, §4
In this example, effects of NOC15 or NC15 on HepG2 cells were assessed by cell viability analysis in accordance with procedures described above, in which compound 2 was used as a positive control.

In series [5] the test system is HepG2 cells. In words: Apoptotic analysis annexin-V/PI flow cytometry. It is filed as cell-based, human. The note with it: 10-60 μM, 48 hours, FIG. 3. The protocol:
The percentage of apototic cells was determined according to the manufacturer's protocol by using an annexin-V/FITC kit/propidium iodine (PI) flow cytometer. To facilitate the detection of apoptosis, the treated cells were centrifuged for 5 min at a speed of 1,000×g at room temperature, and then resuspended and washed once with 5 mL PBS before being stained with annexin-V/PI (apoptosis detection kit, R&D Systems, Taipei, Taiwan).
as §1

The subject of series [6] is L1210 cells. Description: Ex vivo growth of leukemia cells (L1210). The format is cell-based, mouse. The note with it: read-out: concentration suppressing ex vivo growth of L1210 cells for about 50%.
Series [7] deals with L1210 cells. In words: Syngeneic L1210 tumor in vivo therapy. The arrangement: species or system DBA/2 mice. The protocol:
The DBA/2 mice (about 7 weeks old, 18-22 g) were obtained from BioLASCO Taiwan Co., Ltd. All mice were housed in specific pathogen-free condition with ad libitum access to water and laboratory chow. A solution of L1210 cells was injected into the subcutaneous tissue to establish a syngeneic tumor. Alternatively, the L1210 cells was injected peritoneally. All animal experiments were performed in accordance with the guidelines of the Animal Welfare Committee of Taipei Veterans General Hospital (Taiwan, R.O.C.).
as §5
After treatment, mice were sacrificed, and their tumors, livers and spleens were harvested and weighted, respectively; and white blood cells (WBC) counts were also measured.
as §6

For the compound `CC(C)=CCCC(C)=CCCC(C)=CCN1C(=O)C2C3CCC(O3)C2C1=O` (stereo not shown) [Compound 18, N-farnesyl-7-oxabicyclo[2.2.1]heptane-2,3-dicarboximide], the “fraction of apoptotic cells (subG1)” value with HepG2 cells [1] (10 μM) is reported as 3.7%; with HepG2 cells [1] (60 μM), 19.8%. Also, the “accumulation of cells in G2/M phase” value in the series with HepG2 cells [1] (10-60 μM) is “inducing the accumulation of cells in G2/M phase”. Besides, the “nuclear morphological changes (apoptosis features)” value with HepG2 cells [2] is “Significant morphological features of apotosis”. Also, the IC50 was found to be 9.3 ± 0.6 µM with BFTC905; 33.1 ± 1 µM in the series on SW480; 19.4 ± 2.1 µM in the series with HepG2 cells [4] (HepG2, 24 h, read-out: Growth Inhibition On Hepatic Cancer Cells IC50 24 hrs); 16.4 ± 1.2 µM in the series on HepG2 cells [4] (HepG2, 48 h, MTT, 48 hours, read-out: Growth Inhibition IC50 HepG2); 16.4 ± 1.2 µM with HepG2 cells [4] (HepG2, 48 h, read-out: Growth Inhibition On Hepatic Cancer Cells IC50 48 hrs); 12.8 ± 2.5 µM with HepG2 cells [4] (HepG2, 72 h, read-out: Growth Inhibition On Hepatic Cancer Cells IC50 72 hrs). Also, the IC50 was around 2.6 µM in the series with L1210 cells [6] (L1210, time not given, listed as NC15) and around 1.6 µM in the series with L1210 cells [6] (Mus musculus, L1210, L1210, time not given). For the same compound, the “total body weight along the course of treatment” value in [3] is on record as “eventually brought the animal body weight to the level same as the control”. Moreover, the “percentage of apoptotic cells / cell death” value in the series with HepG2 cells [5] was “dose-dependent”. In addition, in the series with L1210 cells [7] (IP-inoculated tumor, 18 mg/kg i.p., FIG. 9B), the weight of liver result is listed as “improved significantly”. In addition, in the series on L1210 cells [7] (IP-inoculated tumor, 18 mg/kg i.p., FIG. 9C), the weight of spleen result is listed as “improved significantly”. Moreover, the “increase in life span” value in the series with L1210 cells [7] (SC-inoculated tumors, 18 mg/kg i.p. daily, FIG. 8A) is given as “about 40%”. Besides, the “weight of s.c. tumor” value in the series with L1210 cells [7] (SC-inoculated, 18 mg/kg i.p., FIG. 9A) is on record as “Significant reduction”. The “white blood cell (WBC) counts” value in the series with L1210 cells [7] (day 14, SC- or IP-injected L1210, 18 mg/kg i.p., FIG. 10) was “significant reductions”.
